From patent publication US20100248224A1, “DNA FRAGMENTATION ASSAY” (priority 2006, published 2010) come the findings set out here.

What all share (format): cell-based, human
Data set [1] relates to HL-60 cells. As to the kind of experiment: DMSO tolerance in HL-60 cells, PicoGreen fluorescent assay. The conditions noted are these: 20 hr incubation, 0.3 million cells/mL, FIG. 11. The procedure: HL-60 cells in mid-log phase (0.3 million cells/mL) were treated with different doses of DMSO for 20 hours. An equal volume of the lysis buffer (20 mM Tris-HCl (pH 8.0), 20 mM EDTA, 0.2% Tween-20 and 5 ug/ml. RNase) was added into the total cell culture. The cell lysate was centrifuged at 2000×g for 20 min. The top portion of the supernatant was withdrawn and DNA content was quantitated using the PicoGreen fluorescent assay.

Data set [2] concerns HL-60 cells. Put plainly: ELISA detection of DNA fragmentation in HL-60 cell lysates (Cell Death Detection ELISA kit). The conditions noted are these: HL-60 cells 0.3 million cells/ml, treated 20 hours, FIG. 5, read-out: EC50 value, DNA fragmentation determined by ELISA.
Data set [3] relates to HL-60 cells. Put plainly: Inhibition of camptothecin-induced DNA fragmentation in HL-60 cells, PicoGreen detection. The conditions noted are these: 20 hours, FIG. 6. From the text: Zinc has been known to inhibit apoptosis induced by both chemical and death-receptor agonists. […] DNA fragments released from cells were quantified with PicoGreen reagent as described above. For samples with camptothecin, without zinc chloride or at low concentrations, fluorescence signal was more than 3 fold of that from samples with DMSO treatment.

The test system of data set [4] is HL-60 cells. As to the kind of experiment: PicoGreen detection of DNA fragmentation in HL-60 cell lysates. The note with it: for pEC50: HL-60 cells 0.3 million cells/ml, treated 20 hours, FIG. 3, read-out: EC50 value, DNA fragmentation detected with PicoGreen. The procedure: An equal volume of the lysis buffer (20 mM Tris-HCl (pH 8.0), 20 mM EDTA, 0.2% Tween-20 and 5 ug/mL RNase) was added into the total cell culture. […] The dose response curve of camptothecin using PicoGreen detection (FIG. 3) was compared to propidium iodide detection (FIG. 4).

pEC50: −log10 of the molar value. Some results are limits rather than exact numbers.

For the compound `C[S+](C)[O-]` [DMSO, dimethyl sulfoxide], the “DMSO concentration tolerated by HL-60 cells” value in data set [1] is given as “up to 1%”.

With `CC[C@@]1(O)C(=O)OCc2c1cc1n(c2=O)Cc2cc3ccccc3nc2-1` [camptothecin, Camptothecin], the pEC50 (usually the negative decadic logarithm of the EC50, by convention in mol/L) in data set [2] (Homo sapiens) is 5.95; in data set [4] (Homo sapiens), 5.83. Besides, the “fluorescence signal relative to samples with DMSO treatment” value in data set [3] (3.2 μM camptothecin, without zinc chloride or at low concentrations) is given as “more than 3 fold”. Moreover, in data set [4] (3.2 uM for 5.5 hours vs 0.1% DMSO, 0.4 million cells/mL, FIG. 1), the PicoGreen fluorescence intensity entry was “increased”. Also, the “DNA fragmentation, time course” value in data set [4] (3.2 uM, at 4 hours of treatment, FIG. 8) is listed as “significant increase in DNA fragmentation”.

Regarding `[Cl-].[Cl-].[Zn+2]` [zinc chloride], the “magnitude of camptothecin-induced DNA fragmentation (level of fluorescent signal)” value in data set [3] (zinc chloride 100 uM or higher, with 3.2 μM camptothecin) is given as “decreased to the same level as samples with DMSO treatment only”.

Neomycin: the pEC50 in data set [2] and in data set [4] was below 4.00 each time.
